Data on nine compounds can be found in publication PMC12668308, “A Novel Antimalarial Agent that Inhibits Protein Synthesis in Plasmodium falciparum” (Angewandte Chemie (International Ed. in English), 2025).

For data set [1], the system named is Dd2b2^WT. Nature of the data set: [3H]-hypoxanthine incorporation assay. Format: cell-based, Plasmodium falciparum. The conditions noted are these: Plasmodium falciparum, 72 h, read-out: Parent (Dd2b2^WT) IC50. The procedure: (§1) P. falciparum asexual blood stage parasites were cultured in human red blood cells (RBC, Blutspende SRK, Zurich) at a hematocrit of 5% in RPMI 1640 medium. The RPMI 1640 medium (ThermoFisher Scientific #51800−043) was supplemented with the following: 24 mM NaHCO3 (pH 7.3, Sigma-Aldrich #31437−500G-R), 25 mM Hepes (Sigma-Aldrich #H4034−500G), 0.36 mM hypoxanthine (Sigma-Aldrich # H9377−25G), 100 µg mL^-1 neomycin (Sigma-Aldrich #N6386−100G) and 0.5% Albumax II (Thermo Fisher #11021−045). Additionally, 2 mM choline chloride (279 mg/L, Sigma-Aldrich #C7527−100G) was added to the culture to block the induction of sexual commitment as described. ^[31^] The RPMI 1640 medium and components were dissolved in water (Milli-Q purified), stirred for at least 3 h, and then sterile filtered (0.22 μm pore size) with a bottle top filter (Corning # 431118). Parasite cultures were maintained in an atmosphere of 3% O2, 4% CO2, and 93% N2 in air-tight chambers at 37 °C. The [^3H]-hypoxanthine incorporation assay was used to test compound activity in the specific parasite lines as described.^[32^] Briefly, compounds were dissolved in DMSO (10 mM) and diluted in a hypoxanthine-free culture medium. A limiting dilution was performed over a 64-fold range (6-step twofold dilution) in a 96-well plate in duplicates. For every starting concentration, a limiting dilution was performed over a 64-fold range (6-step twofold dilution) in a 96-well plate in two biological duplicates. Parasites were added at 100 µL to each well containing the compound to obtain a final parasitemia of 0.3% and haematocrit of 1.25%. The plates were incubated for 48 h before 0.25 µCi of [^3H]-hypoxanthine was added per well for an additional 24 h. Parasites were harvested on a glass-fiber filter with a Microbeta FilterMate cell harvester (Perkin Elmer, Waltham, USA) and radioactivity was counted using a MicroBeta2 liquid scintillation counter (Perkin Elmer, Waltham, US). […] The fifty percent inhibitory concentration (IC50) was calculated by using nonlinear, four parameter (variable slope) curve fitting as described ^[33^] after importing into GraphPad Prism (version 8.3.0).
31 was used for resistance selection studies using the strain Dd2b2 (kindly provided by David Fidock). Resistance selection was done as described in ^[34^]. As summarized in Table S3, an initial inoculum of 2 x 10^9 asexual blood stage parasites (at 2-2.5% parasitemia) were cultured in three independent flasks. […] Cloning via limiting dilution was performed to obtain resistant clones for further characterization as described in section 2.2.5.

The test system of data set [2] is Dd2b2^pfmdr1 G182S. Format: cell-based, Plasmodium falciparum. Conditions: Dd2b2^pfmdr1 G182S vs Dd2b2^WT. The procedure: (§2) ^[a] 72-h [^3H] hypoxanthhine incorporation assay; Data is expressed as mean±s.d. The assay was performed in three independent biological experiments, each in biological duplicates
as §1

The test system of data set [3] is Dd2b2^pfmdr1 K1065N. Format: cell-based, Plasmodium falciparum. Conditions: Dd2b2^pfmdr1 K1065N vs Dd2b2^WT. The procedure: as §2
(§3) P. falciparum asexual blood stage parasites were cultured in human red blood cells (RBC, Blutspende SRK, Zurich) at a hematocrit of 5% in RPMI 1640 medium. The RPMI 1640 medium (ThermoFisher Scientific #51800−043) was supplemented with the following: 24 mM NaHCO3 (pH 7.3, Sigma-Aldrich #31437−500G-R), 25 mM Hepes (Sigma-Aldrich #H4034−500G), 0.36 mM hypoxanthine (Sigma-Aldrich # H9377−25G), 100 µg mL^-1 neomycin (Sigma-Aldrich #N6386−100G) and 0.5% Albumax II (Thermo Fisher #11021−045). Additionally, 2 mM choline chloride (279 mg/L, Sigma-Aldrich #C7527−100G) was added to the culture to block the induction of sexual commitment as described. ^[31^] The RPMI 1640 medium and components were dissolved in water (Milli-Q purified), stirred for at least 3 h, and then sterile filtered (0.22 μm pore size) with a bottle top filter (Corning # 431118). Parasite cultures were maintained in an atmosphere of 3% O2, 4% CO2, and 93% N2 in air-tight chambers at 37 °C. The [^3H]-hypoxanthine incorporation assay was used to test compound activity in the specific parasite lines as described.^[32^] Briefly, compounds were dissolved in DMSO (10 mM) and diluted in a hypoxanthine-free culture medium. A limiting dilution was performed over a 64-fold range (6-step twofold dilution) in a 96-well plate in duplicates. For every starting concentration, a limiting dilution was performed over a 64-fold range (6-step twofold dilution) in a 96-well plate in two biological duplicates. Parasites were added at 100 µL to each well containing the compound to obtain a final parasitemia of 0.3% and haematocrit of 1.25%. The plates were incubated for 48 h before 0.25 µCi of [^3H]-hypoxanthine was added per well for an additional 24 h. Parasites were harvested on a glass-fiber filter with a Microbeta FilterMate cell harvester (Perkin Elmer, Waltham, USA) and radioactivity was counted using a MicroBeta2 liquid scintillation counter (Perkin Elmer, Waltham, US). The results were recorded, processed by subtraction of the mean background signal obtained from the uninfected RBC controls and expressed as percentage of untreated controls. The fifty percent inhibitory concentration (IC50) was calculated by using nonlinear, four parameter (variable slope) curve fitting as described ^[33^] after importing into GraphPad Prism (version 8.3.0).

In data set [4] the test system is 3D7^WT. Nature of the data set: [3H]-hypoxanthine incorporation assay. Conditions: Plasmodium falciparum, read-out: 3D7^WT IC50. Format: cell-based. The procedure:
(§4) ^[a] 72-h [^3H] hypoxanthhine incorporation assay; Data is expressed as mean±s.d.. The assay was performed in three independent biological experiments, each in biological duplicates.
as §3

Data set [5] deals with 3D7^Cas9 pfmdr1 G182S. The data set is classed as cell-based, Plasmodium falciparum. Conditions: 3D7^Cas9 pfmdr1 G182S vs 3D7^WT. Here is the method:
as §4, §3
The P. falciparum 3D7 wild type parasites in the ring stage were transfected as described.^[20] Infected RBCs collected from a 5 ml culture of synchronous ring stage parasites (5-6% parasitemia at ) were added to 250 µl of packed RBCs and were co-transfected with 50µg of Cas9 and 50 µg of donor plasmids using a Bio-Rad Gene Pulser Xcell Electroporation System (single exponential pulse, 310 V, 250 µF). 24 hours post-transfection, 5 nM WR99210 (MedChemExpress #HY-116387) was added to the culture medium for six days to select for gene-edited parasites, and henceforth parasites were maintained in normal culture medium until a stably propagating parasite population was obtained. After ~4 weeks post-transfection, stably propagating parasite population were obtained. The transgenic parasite line (3D7^pfmdr1 G182S) was cloned out using an established plaque assays via limiting dilution.^[35^] […]

Data set [6] relates to P. falciparum NF54 strain. Nature of the data set: [3H]-hypoxanthine incorporation assay, asexual blood stage. The conditions noted are these: Plasmodium falciparum, NF54, asexual blood stage; mean ± s.d.; read-out: PfNF54 IC50 ± s.d. The data set is classed as cell-based, Plasmodium falciparum. Here is the method: as §1
Data set [7] is described as follows: Metabolic stability in liver S9 fractions. Conditions: pooled mouse liver S9 fraction; 1 μM compound, 1 mg/mL pooled mouse liver S9, 37 °C; read-out: t1/2 Mouse Liver S9. The data set is classed as in vitro ADME. Here is the method: To evaluate phase I and phase II metabolic stability, the compound (1 μM) was incubated at 37 °C for 240 min with 1 mg/mL pooled mouse liver S9 fraction (Xenotech, Kansas City, USA), 2 mM NADPH, 1 mM UDPGA, 10 mM MgCl2, 5 mM GSH and 0.1 mM PAPS. Metabolic stability of reference compounds: testosterone, verapamil and ketoconazole was determined in parallel to confirm the enzymatic activity of mouse S9 fractions. At defined time points, the incubation was stopped by precipitation of aliquots of S9 enzymes with 2 volumes of cold acetonitrile containing internal standard (150 nM diphenhydramine or 15 nM for Altis Plus measurements). Samples were kept on ice until the end of the incubation, after which precipitated protein was removed by centrifugation (15 min, 4 °C, 4,000 g).

The subject of data set [8] is HepG2. Nature of the data set: Cytotoxicity assay (MTT). Format: cell-based, human. The conditions noted are these: Homo sapiens, HepG2; 100 µM, 48 h, MTT. The procedure: HepG2 (2x10^4 cells per well) were seeded in 96-well flat-bottom culture plates in 100 µL of culture medium (DMEM containing 10% fetal calve serum and 1% penicillin-streptomycin). After 24 hours, the medium was replaced by fresh medium containing test compounds in a final DMSO concentration of 1%. […] Epirubicin and doxorubicin were used as positive controls in serial dilutions starting from 10 µM, and rifampicin was used as a negative control (at 100 µM). Cell viability was determined 48 h after treatment with compounds by adding 0.1 volumes of 3-(4,5-dimethylthiazol-2-yl)-2,5-diphenyltetrazolium bromide (MTT) solution (5 mg/mL sterile PBS) (Sigma, St. Louis, MO) to the wells. After incubating the cells for 30 min at 37 °C (atmosphere containing 5% CO2), medium was removed and MTT crystals were dissolved in 75 µL of a solution containing 10% SDS and 0.5% acetic acid in DMSO. The optical density (OD) of the samples was measured photometrically at 570 nm in a PHERAstar Omega plate reader (BMG labtech, Ortenberg, Germany). Percent viability was calculated by normalizing sample ODs to those of the DMSO controls. Each compound was tested in at least two independent experiments and CC50 values were determined using the nonlinear regression function of GraphPad Prism 10 (GraphPad Software, San Diego, CA, USA).

SMILES strings stand for the structures. Read-outs that look alike come from different tables or passages of the source.

Regarding `CCN(CC)Cc1cc(Nc2ccnc3cc(Cl)ccc23)ccc1O` [Amodiaquine, amodiaquine, reference compound], the IC50 (as a rule, the concentration that inhibits the measured activity by half) in data set [1] was 0.8 ± 0.2 nM; in data set [4] (3D7, 72-h assay, mean±s.d.) it was 0.8 ± 0.2 nM. Moreover, the “IC50 fold shift relative to parental clone” value in data set [2] was 1.1; in data set [3] it was 1.2. In addition, in data set [5], the “IC50 fold shift relative to 3D7^WT strain” value was determined as 1.2.
As to `CCN(CC)CCCC(C)Nc1ccnc2cc(Cl)ccc12` (stereo not shown) [Chloroquine, chloroquine, reference compound], the IC50 in data set [1] came out at 22.3 ± 1.3 nM; in data set [4] (3D7, 72 h), 1.9 ± 0.1 nM.
Consider `CC(C)(C)c1ccc(O)c(NC(=O)c2cccc(Oc3cc(C(F)(F)F)ccn3)c2)c1` [Compound 24, N-(5-(tert-Butyl)-2-hydroxyphenyl)-3-((4-(trifluoromethyl)pyridin-2-yl)oxy)benzamide], for which, in data set [6], the IC50 is 17 ± 3 nM. For the same compound, in data set [7], the half-life at 1 µM came to 5.4 ± 0.5 min.
On to `CCN(CC)Cc1ccc(O)c(NC(=O)c2cccc(Oc3cc(C(F)(F)F)ccn3)c2)c1` [Compound 27, N-(5-((diEthylamino)methyl)-2-hydroxyphenyl)-3-((4-(trifluoromethyl)pyridin-2-yl)oxy)benzamide], for which the half-inhibitory concentration (IC50) in data set [6] came out at 11 ± 3.4 nM; in data set [1], 3.5 ± 0.7 nM; in data set [4] (3D7, 72-h assay, mean±s.d.), 2.2 ± 0.2 nM. The “IC50 fold shift relative to parental clone” value in data set [2] was found to be 10.6; in data set [3], 9.4. For the same compound, the “IC50 fold shift relative to 3D7^WT strain” value in data set [5] is 1.5.
`O=C(Nc1cc(CN2CCOCC2)ccc1O)c1cccc(Oc2cc(C(F)(F)F)ccn2)c1` [Compound 30, N-(2-Hydroxy-5-(morpholinomethyl)phenyl)-3-((4-(trifluoromethyl)pyridin-2-yl)oxy)benzamide]: the IC50 in data set [6] turned out to be 10 ± 1.8 nM; in data set [1] it was 5.2 ± 0.3 nM; in data set [4] (3D7, 72-h assay, mean±s.d.), 2.6 ± 0.5 nM. In addition, the half-life at 1 µM in data set [7] is 28.1 ± 5.5 min. Further, testing at 100 µM in data set [8] gave an inhibition of 45 ± 21%. For the same compound, in data set [3], the “IC50 fold shift relative to parental clone” value is reported as 11.8.
Consider `O=C(Nc1cc(CN2CCOCC2)cc(F)c1O)c1cccc(Oc2cc(C(F)(F)F)ccn2)c1` [Compound 32, N-(3-Fluoro-2-hydroxy-5-(morpholinomethyl)phenyl)-3-((4-(trifluoromethyl)pyridin-2-yl)oxy)benzamide], for which the concentration for half-maximal inhibition (IC50) in data set [6] came to 21.6 ± 2.65 nM. Moreover, the half-life at 1 µM in data set [7] was determined as 18.4 ± 4.2 min. In addition, the inhibition – broadly, the percentage by which the read-out fell short of the control – at 100 µM in data set [8] was 51 ± 1%.
For the compound `O=C(Nc1cc(CN2CCOCC2)cc(Cl)c1O)c1cccc(Oc2cc(C(F)(F)F)ccn2)c1` [Compound 33, N-(3-Chloro-2-hydroxy-5-(morpholinomethyl)phenyl)-3-((4-(trifluoromethyl)pyridin-2-yl)oxy)benzamide], the IC50 in data set [6] worked out at 63 ± 7.4 nM. The half-life at 1 µM in data set [7] was 49.9 ± 4 min. In data set [8], this compound displayed an inhibition at 100 µM of 66 ± 2%.
In the case of `CCCCN(CCCC)CC(O)c1cc(Cl)cc2c1-c1ccc(Cl)cc1/C2=C/c1ccc(Cl)cc1` (stereo not shown) [Lumefantrine, lumefantrine, reference compound], the IC50 in data set [1] came out at 1.6 ± 0.8 nM; in data set [4] (3D7, 72-h assay, mean±s.d.) it was 1.6 ± 0.8 nM. In addition, the “IC50 fold shift relative to parental clone” value in data set [2] amounted to 0.4; in data set [3], 0.8. The “IC50 fold shift relative to 3D7^WT strain” value in data set [5] was 0.8.
As for `OC(c1cc(C(F)(F)F)nc2c(C(F)(F)F)cccc12)C1CCCCN1` (stereo not shown) [Mefloquine, mefloquine, reference compound], the IC50 in data set [1] turned out to be 1.1 ± 0.2 nM; in data set [4] (3D7, 72-h assay, mean±s.d.), 1.4 ± 0.5 nM. Besides, the entries for the “IC50 fold shift relative to parental clone” value in data set [2] and in data set [3] were 0.3 and 0.8, respectively. The “IC50 fold shift relative to 3D7^WT strain” value in data set [5] is reported as 1.3.
